The target in series [1] is T1, RXRβ (UniProt P28704).
T1 sequence (P28704 1-520): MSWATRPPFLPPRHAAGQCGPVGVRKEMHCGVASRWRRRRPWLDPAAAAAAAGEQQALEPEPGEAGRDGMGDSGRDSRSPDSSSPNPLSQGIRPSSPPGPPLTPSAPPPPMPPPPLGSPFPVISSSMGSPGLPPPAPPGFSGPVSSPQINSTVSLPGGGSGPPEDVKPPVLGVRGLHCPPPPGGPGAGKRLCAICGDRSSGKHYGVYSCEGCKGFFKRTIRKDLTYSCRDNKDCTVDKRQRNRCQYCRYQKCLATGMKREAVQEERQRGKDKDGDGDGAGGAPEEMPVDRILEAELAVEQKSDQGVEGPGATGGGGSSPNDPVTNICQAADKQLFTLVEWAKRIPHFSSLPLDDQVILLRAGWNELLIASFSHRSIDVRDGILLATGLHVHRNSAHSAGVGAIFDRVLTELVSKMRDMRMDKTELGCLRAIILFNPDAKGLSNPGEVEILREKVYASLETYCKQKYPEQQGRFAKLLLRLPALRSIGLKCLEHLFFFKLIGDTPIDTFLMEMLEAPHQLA
The experiment in a line: holoreceptor transactivation assay.
Excerpt: (§1) The results obtained in this assay are expressed in EC50 numbers, as they are also in the chimeric receptor transactivation assay.
(§2) Particularly, the transactivation data pertaining to activation of the RAR receptors were obtained in the chimeric assay, and the transactivation data pertaining to the activation of RXR receptors were obtained in the holoreceptor assay.

Series [2] relates to female diabetic db/db mice. The experiment in a line: serum glucose, triglyceride and thyroxine levels in db/db mice. Format: in vivo. The following applies: for Glucose Day 0 / Triglycerides Day 0 / Glucose Day 3, 3 h / Triglycerides Day 3, 3 h / Glucose Day 6, 3 h / T4 Day 7: 5 mg/kg oral gavage daily; for Glucose Day 0 / Triglycerides Day 0: day 0 (pre-treatment). The protocol:
An assay described below tests the effect of compounds of the invention on serum glucose, tryglyceride and thyroxine levels in female 9-10 weeks old db/db mice.
Blood samples (70 μl) were taken by orbital bleeding at 11:00 AM on day 0 (pre-treatment), day 3, and day 6. On day 7, a blood sample (700 μl) was taken at 11:00 AM and the animals were sacrificed. Glucose, triglyceride and thyroxine (T4) levels were determined on a Boehringer Manheim Hatachi Clinical Chemistry Analyzer using standard protocols provided by the manufacturer and reagents that were supplied in commercially available kits (glucose and T4: Boehringer Manheim; triglycerides: Roche Diagnostics). Seven animals were treated in each group.

Series [3] has as its target T2, RXRα (Homo sapiens, UniProt P19793).
T2 construct: expressed in transfected cells
T2 sequence (P19793 1-462): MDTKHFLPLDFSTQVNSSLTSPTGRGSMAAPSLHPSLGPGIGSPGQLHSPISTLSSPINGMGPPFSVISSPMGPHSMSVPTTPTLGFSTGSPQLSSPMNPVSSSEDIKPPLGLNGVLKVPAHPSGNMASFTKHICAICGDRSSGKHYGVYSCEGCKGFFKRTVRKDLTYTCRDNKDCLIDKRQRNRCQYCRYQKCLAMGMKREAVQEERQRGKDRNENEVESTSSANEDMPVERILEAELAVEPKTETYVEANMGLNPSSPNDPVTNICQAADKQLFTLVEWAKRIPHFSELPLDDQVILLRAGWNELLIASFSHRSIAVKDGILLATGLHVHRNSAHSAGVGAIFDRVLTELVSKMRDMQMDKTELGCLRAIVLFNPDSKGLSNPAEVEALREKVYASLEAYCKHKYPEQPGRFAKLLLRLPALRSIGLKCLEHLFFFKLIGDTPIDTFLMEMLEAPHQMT
The experiment in a line: holoreceptor transactivation assay. Type of series: cell-based. The following applies: percentage compared to the standard compound.
Excerpt: as §1, §2

The structures appear in SMILES notation.

Take `CC(/C=C/[C@@H]1C[C@]1(C)c1ccc2c(c1)C(C)(C)CCC2(C)C)=C\C(=O)O` [Standard compound]: the “RXR Trans. efficacy β” value in series [1] was 0.4 (100) 1%. Also, in series [2] (Table 2), the “Glucose Day 0” value amounted to 378 mg/dL; the “Triglycerides Day 0” value turned out to be 171 mg/dL; the “Glucose Day 3, 3 h” value was 308 mg/dL; the “Triglycerides Day 3, 3 h” value stood at 472 mg/dL. In addition, in series [2] (Table 2), the “Glucose Day 6, 3 h” value was 333 mg/dL and the “T4 Day 7” value was found to be 1.2 µg/dL. Moreover, in series [2] (Table 3), the “Glucose Day 0” value was 409 mg/dL; the “Triglycerides Day 0” value is 193 mg/dL; the “Glucose Day 3, 3 h” value is 369 mg/dL; the “Triglycerides Day 3, 3 h” value turned out to be 50 mg/dL. For the same compound, in series [2] (Table 3), the “Glucose Day 6, 3 h” value stood at 378 mg/dL and the “T4 Day 7” value was 1.4 µg/dL. Besides, in series [2] (diabetic mammals, summary in words), the “effect on serum thyroxine levels” value was “reducing serum thyroxine levels”. For the same compound, the “RXR Trans. efficacy α” value in series [3] stood at 100%.

The record behind these values is patent US6759546B1, “3,5-di-iso-propyl-heptatrienoic acid derivatives having serum glucose reducing activity” (Allergan, Inc., priority 2003, dated 2004).
